Assays:
[1] = test system: SARS-CoV-2; assay: Ivermectin effect on preventing SARS-CoV-2 infection of pretreated Vero-E6 cells (qRT-PCR); type: cell-based
Description: Assessment of Ivermectin effect on preventing SARS-CoV-2 infection Vero-E6 cells were incubated with 0.01, 0.025, 0.05, 0.1, 0.5, 1 or 5 μM concentrations of ivermectin during 2, 6, 16 or 24 hours. Then, cells were infected with SARS-CoV-2 at a multiplicity of infection (MOI) of 0.001, 0.01 or 0.1. After 2 hours of incubation in the presence of the virus, medium with the same concentration of ivermectin was added again. After 24, 48 or 72 hours, viral charge is quantified by qRT-PCR.

[2] = test system: Vero-E6 cells; assay: Cytotoxicity in non-infected Vero-E6 cells (cell viability); type: cell-based; settings: 0.01-5 μM ivermectin
Description: For avoiding false positives, cytotoxicity was evaluated by culturing non-infected cells in the same conditions and with the same concentrations of ivermectin. Cell viability was then determined.

[3] = test system: SARS-CoV-2 clinical isolate; settings: Vero/hSLAM cells, cited from earlier work
[4] = test system: DENV; settings: single daily oral dose; cited from earlier work
[5] = test system: Zika virus (ZIKV); settings: mice; cited from earlier work

## ivermectin
[1]; 72 hours post-infection, preincubation 2, 6, 16 or 24 hours
  preincubation-time dependency of inhibition of viral replication: the longer the preincubation time with ivermectin, the higher the inhibition of viral replication
[1]; cells pretreated with ivermectin at 5 μM
  viral replication (RT-qPCR): highly inhibited
[2]
  cell toxicity: No cell toxicity
[3]
  antiviral action in vitro: has antiviral action
[3]; single dose
  time within which a single dose controls viral replication: 24 to 48 h
[4]
  safety: safe
  serum levels of viral NS1 protein: significant reduction
  viremia or clinical benefit: no change
[5]
  effectiveness against Zika virus: not effective
